From PubChem BioAssay (NCI)
Where “and” joins values, the source holds several entries; their conditions need not be identical. Identical values can stand only once.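 Each compound was tested at five concentrations against cells in 96-well plates for 48 hours. GI50 is the concentration that inhibits growth by half. TGI: total growth inhibition.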

Legend:
Experiment in all cases: NCI-60 cell line screen, 48 h
UACC-62 melanoma = system: UACC-62 melanoma
MOLT-4 leukemia = system: MOLT-4 leukemia
SK-MEL-2 melanoma = system: SK-MEL-2 melanoma
IGROV1 ovarian = system: IGROV1 ovarian
NCI-H460 lung = system: NCI-H460 lung
HT29 colon = system: HT29 colon
OVCAR-4 ovarian = system: OVCAR-4 ovarian
SK-MEL-5 melanoma = system: SK-MEL-5 melanoma
MDA-MB-231 breast = system: MDA-MB-231 breast
NCI-H522 lung = system: NCI-H522 lung

Compound	GI50 (UACC-62 melanoma) [µM]	TGI (UACC-62 melanoma)	GI50 (MOLT-4 leukemia) [µM]	TGI (MOLT-4 leukemia)	GI50 (SK-MEL-2 melanoma) [µM]	TGI (SK-MEL-2 melanoma)	GI50 (IGROV1 ovarian) [µM]	TGI (IGROV1 ovarian)	GI50 (NCI-H460 lung) [µM]	TGI (NCI-H460 lung)	GI50 (HT29 colon) [µM]	TGI (HT29 colon)	GI50 (OVCAR-4 ovarian) [µM]	TGI (OVCAR-4 ovarian)	GI50 (SK-MEL-5 melanoma) [µM]	TGI (SK-MEL-5 melanoma)	GI50 (MDA-MB-231 breast) [µM]	TGI (MDA-MB-231 breast) [µM]	TGI (NCI-H522 lung)	GI50 (NCI-H522 lung) [µM]
O=S(=O)([O-])c1ccc(N=Cc2ccccc2[O-])cc1.O=S(=O)([O-])c1ccc(N=Cc2ccccc2[O-])cc1.[Co+2]	76.8	> 100 µM	21.7	> 100 µM	> 100	> 100 µM	> 100	> 100 µM	–	–	–	–	–	–	–	–	–	–	–	–
Cc1nc2c(c(N3CCCc4ccccc43)n1)CCC2	< 0.01	> 100 µM	< 0.01	3.07 µM	0.016	> 100 µM	0.0249	> 100 µM	< 0.01	> 100 µM	< 0.01	0.0131 µM	0.0406	> 100 µM	< 0.01	0.0233 µM	0.0137	> 100	–	–
COC(=O)c1ccccc1N(C(=O)c1ccccc1)c1ccccc1C	–	> 100 µM	–	54.6 µM	–	> 100 µM	–	> 100 µM	–	> 100 µM	–	> 100 µM	–	> 100 µM	–	> 100 µM	–	–	86.1 µM	–
O=C(O)C[C@@H](Cl)[C@H](NC(=O)OCc1ccccc1)C(=O)O	–	> 100 µM	–	> 100 µM	–	> 100 µM	–	> 100 µM	–	> 100 µM	–	> 100 µM	–	> 100 µM	–	> 100 µM	–	–	> 100 µM	–
CC(CC(=O)N1C(=O)C(C)(C)[C@@H](O)[C@H]1CC(C)C(Cl)(Cl)Cl)C(Cl)(Cl)Cl (stereo partly specified)	–	> 100 µM	–	> 100 µM	–	–	–	> 100 µM	–	> 100 µM	–	> 100 µM	–	> 100 µM	–	> 100 µM	–	–	> 100 µM	–
C=C(CO)CC(O)c1cc(OC)ccc1OC (stereo unspecified)	–	> 100 µM	–	> 100 µM	–	> 100 µM	–	> 100 µM	–	> 100 µM	–	> 100 µM	–	> 100 µM	–	> 100 µM	–	–	> 100 µM	–
N#CC(/C(CCC(=O)Nc1ccc(Cl)cc1)=N/NC(=O)c1cc2ccccc2cc1O)c1ccccc1 (stereo unspecified)	–	> 100 µM	–	94.9 µM	–	61.2 µM	–	> 100 µM	–	> 100 µM	–	> 100 µM	–	> 100 µM	–	40.6 µM	–	–	–	–
CCOC(=O)C(=O)Nc1nc2c(OCC)cccc2s1	–	> 100 µM	–	> 100 µM	–	> 100 µM	–	> 100 µM	–	> 100 µM	–	> 100 µM	–	> 100 µM	–	> 100 µM	–	–	> 100 µM	–
CC(C)C12Cc3c(ccc4ccccc34)OC1(C)Oc1ccc3ccccc3c1C2 (stereo unspecified)	–	> 100 µM	–	> 100 µM	–	> 100 µM	–	> 100 µM	–	> 100 µM	–	> 100 µM	–	> 100 µM	–	> 100 µM	–	–	> 100 µM	–
Cc1n[nH]c(=S)n(C)c1=S	–	> 100 µM	–	> 100 µM	–	> 100 µM	–	> 100 µM	–	> 100 µM	–	–	–	> 100 µM	–	–	–	–	> 100 µM	–
CCCc1n(Cc2ccc3ccccc3c2)cc[n+]1Cc1ccc2ccccc2c1	0.647	2.02 µM	1.46	4.07 µM	–	–	0.779	2.42 µM	1.22	3.01 µM	0.513	1.89 µM	0.398	1.61 µM	0.485	1.62 µM	1.06	2.54	1.69 µM	0.378
COC(=O)C1=C(O)[C@H](C(=O)OC)C2(O)C(C(=O)OC)[C@H](c3ccc(OC(=O)C(C)c4ccccc4)cc3)C[C@@H]1[C@@H]2C(=O)OC (stereo partly specified)	16.9	> 50 µM	–	–	31	> 50 µM	26.7	> 50 µM	19.4	> 50 µM	–	–	21.5	> 50 µM	8.53	23 µM	19.5	> 50	45.1 µM	15.9
NCCc1ccc(S(=O)(=O)F)cc1	–	–	32.2	> 100 µM	90.9	> 100 µM	71.7	> 100 µM	62.3	> 100 µM	> 100	> 100 µM	> 100	> 100 µM	59.1	> 100 µM	–	–	> 100 µM	73.4
CSCS(=O)C[C@H](CO)NC(=O)/C=C/c1c(C)[nH]c(=O)[nH]c1=O (stereo partly specified)	1.39	4.56 µM and 3.44 µM	–	6.73 µM and 5.09 µM	1.65	4.59 µM and 2.75 µM	1.78	9.35 µM and 14.1 µM	1.19	> 27.6 µM and 7.55 µM	2.3	10 µM and 12.2 µM	0.296	1.07 µM and 0.994 µM	1.7	5.07 µM and 5.39 µM	–	–	3.3 µM and 2.36 µM	1.35
N/N=C1\C(=O)N(Cc2ccccc2)C(=O)C1C(=O)NCc1ccccc1 (stereo unspecified)	–	> 100 µM	–	> 100 µM	–	> 100 µM	–	> 100 µM	–	> 100 µM	–	> 100 µM	–	> 100 µM	–	> 100 µM	–	–	> 100 µM	–
N.N.N.N.N.NC(=O)[O-].[Co+3].[I-]	> 100	> 100 µM	> 100	> 100 µM	> 100	> 100 µM	> 100	> 100 µM	> 100	> 100 µM	> 100	> 100 µM	> 100	> 100 µM	> 100	> 100 µM	–	–	> 100 µM	> 100
CC(C)N(O)C(=N)c1ccccc1	–	–	–	–	–	> 100 µM	–	–	–	> 100 µM	–	> 100 µM	–	> 100 µM	–	> 100 µM	–	–	> 100 µM	–
O=C(O)/C(Cl)=C(\Cl)C(=O)c1ccccc1	–	> 100 µM	–	> 100 µM	–	> 100 µM	–	> 100 µM	–	> 100 µM	–	> 100 µM	–	> 100 µM	–	> 100 µM	–	–	> 100 µM	–
O=c1c2ccc(S(=O)(=O)c3ccc4c(=O)n5c6ccccc6nc5c5cccc3c45)c3cccc(c32)c2nc3ccccc3n12	–	> 100 µM	–	–	–	65.6 µM	–	18.2 µM	–	> 100 µM	–	> 100 µM	–	–	–	> 100 µM	–	59.9	> 100 µM	–
